Series [1] in a line: Body weight of SHR rats during daily oral dosing. In kind it is in vivo, rat. Particulars: n=10, oral once daily, CM6271 300 mg/kg, hydralazine 5 mg/kg. The source says:
Figures in Table 1 represent mean±SD (standard deviation).

In series [2] the test system is SHR (spontaneously hypertensive rat). The conditions noted are these: SHR rats, observed once daily at dosing.
Series [3] shares this test system. Put plainly: Pulse rate by the tail cuff method in SHR rats. Format: in vivo. Particulars: mean±SD; for Pulse rate (bpm) Before dosing: n=10, baseline in acclimatization period; for Pulse rate (bpm) 2nd dosing week: n=10, oral once daily, CM6271 300 mg/kg, hydralazine 5 mg/kg, 23 to 25 hours after dosing in 2nd dosing week. How it is done: (§1) For statistical analysis of blood pressure, pulse rate and body weight data, Dunnett test was used to make intergroup comparisons, and the level of significance was less than 5% (p<0.05) and less than 1% (p<0.01).
(§2) Systolic blood pressure and pulse rate were measured in all animals by the tail cuff method using an automated noninvasive sphygmomanometer (BP-98A, Softron Co., Ltd.) once during the acclimatization period and 23 to 25 hours after dosing in the second dosing week. Figures in Table 2 represent mean±SD.

Series [4] has the same test system. Put plainly: Systolic blood pressure by the tail cuff method in SHR rats. In kind it is in vivo. Particulars: mean±SD; for Blood pressure (mmHg) Before dosing: n=10, baseline in acclimatization period; for Blood pressure (mmHg) 2nd dosing week: n=10, oral once daily, CM6271 300 mg/kg, hydralazine 5 mg/kg, 23 to 25 hours after dosing in 2nd dosing week, *p<0.05, **p<0.01 vs. control. How it is done:
as §1, §2

Consider `NNc1nncc2ccccc12` [Hydralazine, hydralazine], for which the “Body weight (g) Day 15” value in series [1] (Day 15, mean±SD) worked out at 261.5 ± 13.7 g. Moreover, the “Body weight (g) Day 22” value in series [1] (Day 22, mean±SD) stood at 276.1 ± 12.8 g. Moreover, the General observations entry in series [2] is listed as “Soft stools were observed in some animals”. In addition, in series [3], the “Pulse rate (bpm) Before dosing” value was determined as 401.3 ± 19.4 bpm and the “Pulse rate (bpm) 2nd dosing week” value amounted to 423.6 ± 31.9 bpm. Besides, in series [3] (listed as hydralazine), the “Pulse rate (bpm) Before dosing” value is reported as 401.3 bpm and the “Pulse rate (bpm) 2nd dosing week” value is 423.6 bpm. Also, in series [4], the “Blood pressure (mmHg) Before dosing” value is 164.9 ± 8.8 mmHg and the “Blood pressure (mmHg) 2nd dosing week” value is 138.4 ± 12.1** mmHg. Moreover, in series [4] (listed as hydralazine), the “Blood pressure (mmHg) Before dosing” value is recorded as 164.9 mmHg and the “Blood pressure (mmHg) 2nd dosing week” value stood at 138.4 mmHg.

Values taken from US20050180991A1, “Hypotensive agent and food” (priority 2004, published 2005).
